Results reported in ChEMBL document CHEMBL6182916, “Unexpected Discovery of a Novel Triphenylphosphonium Alkylalcohol That Triggers Cancer Cell Death via Mitophagy and Ferroptosis” (J Med Chem, 2025).
Calls of active or inactive are those of the source. The calls are words filed in the database; no cut-off is given here.

Columns and labels:
[1] = system: HCC827; assay: Downregulation of HK-2 expression level in human HCC827 cells 0.5 uM by Western blot analysis; format: functional, cell-based; details: time 3-24 hrs
[2] = Toxicity in female nude mouse assessed as drug tolerance at 5 to 10 mg/kg, ip measured after 14 days; format: organism-based; details: in vivo, 336 h, dose 5-10 mg/kg, time 14 day
[3] = system: BEAS-2B; assay: Induction of mitochondrial dysfunction in human BEAS-2B cells assessed as reduction in glycolytic reserve at 0.125 to 5 uM incubated for 4 hrs by Seahorse XF96 extracellular flux analyzer; format: functional, cell-based; details: dose 0.125-5 µM
[4] = system: HCC827; assay: Induction of apoptosis in human HCC827 cells assessed as necrotic cells at 0.25 uM measured after 48 hrs by annexin V and PI staining based flow cytometry analysis (reference value: 1.18%); format: functional
[5] = system: BEAS-2B; assay: Induction of mitochondrial dysfunction in human BEAS-2B cells assessed as reduction in glycolytic capacity at 0.125 to 5 uM incubated for 4 hrs by Seahorse XF96 extracellular flux analyzer; format: functional, cell-based; details: dose 0.125-5 µM
[6] = system: HCC827; assay: Effect on ATP5A expression in human HCC827 cells at 0.25 to 0.5 uM incubated for 24 hrs by Western blot analysis; format: functional, cell-based; details: dose 0.25-0.5 µM
[7] = system: HCC827; assay: Induction of mitochondrial dysfunction in human HCC827 cells assessed as suppression of ATP production incubated for 4 hrs by Seahorse XF96 extracellular flux analyzer; format: functional, cell-based; details: dose 0.125-5 µM
[8] = system: HCC827; assay: Inhibition of cell migration in human HCC827 cells at 0.05 to 0.1 uM incubated for 24 hrs by crystal violet staining based transwell assay; format: functional; details: dose 0.05-0.1 µM
[9] = system: HCC827; assay: Induction of mitochondrial dysfunction in human HCC827 cells assessed as appearance of vacuoles with damaged mitochondria at 1 uM after 24 hrs by TEM analysis; format: functional, cell-based
[10] = system: HCC827; assay: Antitumor activity against human HCC827 cells xenografted in female nude mouse model assessed as suppression of tumor growth at 5 to 10 mg/kg, ip measured every two days for 14 days; format: functional, organism-based; details: dose 5-10 mg/kg, time 14.0 day
[11] = target: T1, Heat shock protein 75 kDa, mitochondrial (Homo sapiens) (UniProt Q12931); assay: Inhibition of human TRAP1 assessed as fold increase in ATPase activity at 20 uM
T1 sequence (whole entry): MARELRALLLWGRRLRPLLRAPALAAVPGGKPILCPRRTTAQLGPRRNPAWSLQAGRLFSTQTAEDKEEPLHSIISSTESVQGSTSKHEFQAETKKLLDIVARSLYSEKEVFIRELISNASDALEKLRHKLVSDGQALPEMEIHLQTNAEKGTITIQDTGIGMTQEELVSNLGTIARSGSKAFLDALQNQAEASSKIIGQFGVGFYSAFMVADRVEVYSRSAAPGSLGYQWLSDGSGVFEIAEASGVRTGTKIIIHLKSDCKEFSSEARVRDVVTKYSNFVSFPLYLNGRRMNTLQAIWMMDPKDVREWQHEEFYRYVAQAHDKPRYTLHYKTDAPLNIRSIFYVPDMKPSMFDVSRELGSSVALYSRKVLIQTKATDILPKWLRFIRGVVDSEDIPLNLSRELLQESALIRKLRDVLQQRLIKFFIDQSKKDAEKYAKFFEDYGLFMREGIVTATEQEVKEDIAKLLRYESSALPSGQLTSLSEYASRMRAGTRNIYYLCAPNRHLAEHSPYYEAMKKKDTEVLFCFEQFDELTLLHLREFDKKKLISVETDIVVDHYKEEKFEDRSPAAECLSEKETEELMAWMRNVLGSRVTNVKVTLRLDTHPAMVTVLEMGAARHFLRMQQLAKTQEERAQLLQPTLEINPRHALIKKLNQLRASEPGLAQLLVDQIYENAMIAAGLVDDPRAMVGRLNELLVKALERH

[12] = system: HCC827; assay: Induction of ferroptosis in human HCC827 cells assessed as decrease in xCT expression incubated for 24 hrs; format: functional, cell-based; details: dose 0.25-0.5 µM
[13] = system: HCC827; assay: Antiproliferative activity against human HCC827 cells assessed as inhibition of cell growth measured after 72 hrs by MTT assay; format: functional, cell-based; details: HCC827, 72 h
[14] = system: HCC827; assay: Induction of apoptosis in human HCC827 cells assessed as necrotic cells at 1 uM measured after 36 hrs by annexin V and PI staining based flow cytometry analysis (Rvb =0.84%); format: functional
[15] = system: HCC827; assay: Induction of ROS generation in human HCC827 cells assessed as fold change at 1 uM incubated for 4 hrs in presence of VC by DCFH-DA staining based by absorbance based laser confocal microscopic analysis (reference value: 2.67); format: functional
[16] = system: HCC827; assay: Antitumor activity against human HCC827 cells xenografted in female nude mouse model assessed as reduction in tumor size at 5 to 10 mg/kg, ip measured every two days for 14 days; format: functional, organism-based; details: dose 5-10 mg/kg, time 14.0 day
[17] = system: HCC827; assay: Inhibition of cell migration in human HCC827 cells by wound healing assay; format: functional, cell-based; details: dose 0.05-0.1 µM
[18] = Toxicity in female BALB/c mouse assessed as effect on body weight at 30 mg/kg, ip measured for 7 days; format: organism-based; details: in vivo, 168 h, time 7 day
[19] = system: HeLa; assay: Induction of mitophagy in human HeLa cells harbouring mCherry-GFP tag assessed as reduction in GFP fluorescence at 0.5 uM incubated for 24 hrs by confocal microscopy analysis; format: functional, cell-based

Cc1ccc([P+](CCCCCCCCCCO)(c2ccc(C)cc2)c2ccc(C)cc2)cc1.[Br-]
Activity [1]: Time-dependent-effect
Activity [2]: Non-toxic
Activity [3]: Minimal_effect
Activity [4]: 2.91%
Activity [5]: Minimal_effect
Activity [6]: Active
Activity [7]: Dose-dependent-effect
inhibition [8]: Active
Activity [9]: Active
Activity [10]: Active
fold change (FC) [11]: 2
Activity [12]: Dose-dependent-effect
IC50 [13]: 70 nM
Activity [14]: 0.96%
Activity [15]: 0.8
Activity [16]: Active
inhibition [17]: Dose-dependent-effect
Activity [18]: Non-toxic
Activity [19]: Active
